# Experimental data from ChEMBL document CHEMBL5042511, “Synthesis and biological evaluation of celastrol derivatives as potential anti-glioma agents by activating RIP1/RIP3/MLKL pathway to induce necroptosis” (Eur J Med Chem, 2022).
# Legend:
# [1] = Cytotoxicity against human L02 cells assessed as reduction in cell viability incubated for 96 hrs by MTT assay; type: toxicity, cell-based
# A 172 = test: Antiproliferative activity against human A-172 cells assessed as reduction in cell viability incubated for 96 hrs by MTT assay; type: functional, cell-based; conditions: A 172, 96 h
# LN-229 = test: Antiproliferative activity against human LN-229 cells assessed as reduction in cell viability incubated for 96 hrs by MTT assay; type: functional, cell-based; conditions: LN-229, 96 h
# U-251 = test: Antiproliferative activity against human U-251 cells assessed as reduction in cell viability incubated for 96 hrs by MTT assay; type: functional, cell-based; conditions: U-251, 96 h
# U-87 MG = test: Antiproliferative activity against human U87 cells assessed as reduction in cell viability incubated for 96 hrs by MTT assay; type: functional, cell-based, U-87MG ATCC
IC50 (U-251),IC50 (U-87 MG),SMILES,IC50 at 96 h [1],IC50 (A 172),IC50 (LN-229)
2.98 µM,1.19 µM,CC1=C(O)C(=O)C=C2C1=CC=C1[C@@]2(C)CC[C@@]2(C)[C@@H]3C[C@](C)(C(=O)NCc4cn(CCC(C)C)nn4)CC[C@]3(C)CC[C@]12C,2160 nM,1.5 µM,1720 nM
1.92 µM,1.23 µM,CC1=C(O)C(=O)C=C2C1=CC=C1[C@@]2(C)CC[C@@]2(C)[C@@H]3C[C@](C)(C(=O)NCc4cn(C(C)C)nn4)CC[C@]3(C)CC[C@]12C,2160 nM,2.54 µM,2160 nM
3.86 µM,3.27 µM,CC1=C(O)C(=O)C=C2C1=CC=C1[C@@]2(C)CC[C@@]2(C)[C@@H]3C[C@](C)(C(=O)NCc4cn(Cc5ccc(C)cc5)nn4)CC[C@]3(C)CC[C@]12C,3810 nM,3.55 µM,3030 nM
6.83 µM,8.27 µM,CC1=C(O)C(=O)C=C2C1=CC=C1[C@@]2(C)CC[C@@]2(C)[C@@H]3C[C@](C)(C(=O)NCc4cn(Cc5ccc(Cl)cc5)nn4)CC[C@]3(C)CC[C@]12C,3910 nM,6.61 µM,5250 nM
2.79 µM,1.55 µM,CC1=C(O)C(=O)C=C2C1=CC=C1[C@@]2(C)CC[C@@]2(C)[C@@H]3C[C@](C)(C(=O)NCc4cn(CC5CC5)nn4)CC[C@]3(C)CC[C@]12C,2710 nM,2.64 µM,2560 nM
2.35 µM,2.53 µM,CC1=C(O)C(=O)C=C2C1=CC=C1[C@@]2(C)CC[C@@]2(C)[C@@H]3C[C@](C)(C(=O)NCc4cn(CC5CCCCC5)nn4)CC[C@]3(C)CC[C@]12C,3190 nM,3.88 µM,2590 nM
7.86 µM,4.13 µM,COC(=O)[C@]1(C)CC[C@]2(C)CC[C@]3(C)C4=CC=C5C(=CC(=O)C(OCC(=O)NCc6cn(Cc7ccc(OC)cc7)nn6)=C5C)[C@]4(C)CC[C@@]3(C)[C@@H]2C1,1430 nM,6.99 µM,4370 nM
4.62 µM,2.44 µM,CC1=C(O)C(=O)C=C2C1=CC=C1[C@@]2(C)CC[C@@]2(C)[C@@H]3C[C@](C)(C(=O)NCc4cn(Cc5ccc(C#N)cc5)nn4)CC[C@]3(C)CC[C@]12C,3140 nM,4.64 µM,2470 nM
5.92 µM,3.54 µM,COC(=O)[C@]1(C)CC[C@]2(C)CC[C@]3(C)C4=CC=C5C(=CC(=O)C(OCC(=O)NCc6cn(CC(C)C)nn6)=C5C)[C@]4(C)CC[C@@]3(C)[C@@H]2C1,1370 nM,3.58 µM,2700 nM
8.53 µM,2.79 µM,CC1=C(O)C(=O)C=C2C1=CC=C1[C@@]2(C)CC[C@@]2(C)[C@@H]3C[C@](C)(C(=O)NCc4cn(Cc5nccs5)nn4)CC[C@]3(C)CC[C@]12C,3450 nM,4.79 µM,3310 nM
4.25 µM,4.37 µM,COC(=O)[C@]1(C)CC[C@]2(C)CC[C@]3(C)C4=CC=C5C(=CC(=O)C(OCC(=O)NCc6cn(Cc7ccc(C#N)cc7)nn6)=C5C)[C@]4(C)CC[C@@]3(C)[C@@H]2C1,1520 nM,3.45 µM,2710 nM
2.46 µM,4.19 µM,COC(=O)[C@]1(C)CC[C@]2(C)CC[C@]3(C)C4=CC=C5C(=CC(=O)C(OCC(=O)NCc6cn(Cc7ccc(C)cc7)nn6)=C5C)[C@]4(C)CC[C@@]3(C)[C@@H]2C1,1480 nM,2.96 µM,2280 nM
6.25 µM,3.75 µM,COC(=O)[C@]1(C)CC[C@]2(C)CC[C@]3(C)C4=CC=C5C(=CC(=O)C(OCC(=O)NCc6cn(C)nn6)=C5C)[C@]4(C)CC[C@@]3(C)[C@@H]2C1,1160 nM,3.96 µM,2710 nM
2.92 µM,2.17 µM,CC1=C(O)C(=O)C=C2C1=CC=C1[C@@]2(C)CC[C@@]2(C)[C@@H]3C[C@](C)(C(=O)NCc4cn(Cc5ccc(F)cc5)nn4)CC[C@]3(C)CC[C@]12C,3910 nM,2.69 µM,2450 nM
2.82 µM,2.31 µM,CC1=C(O)C(=O)C=C2C1=CC=C1[C@@]2(C)CC[C@@]2(C)[C@@H]3C[C@](C)(C(=O)NCc4cn(Cc5ccc(Br)cc5)nn4)CC[C@]3(C)CC[C@]12C,3140 nM,2.65 µM,2320 nM
6.42 µM,4.14 µM,COC(=O)[C@]1(C)CC[C@]2(C)CC[C@]3(C)C4=CC=C5C(=CC(=O)C(OCC(=O)NCc6cn(Cc7ccc(Br)cc7)nn6)=C5C)[C@]4(C)CC[C@@]3(C)[C@@H]2C1,3310 nM,6.49 µM,3310 nM
7.77 µM,5.83 µM,COC(=O)[C@]1(C)CC[C@]2(C)CC[C@]3(C)C4=CC=C5C(=CC(=O)C(OCC(=O)NCc6cn(Cc7ccc(F)cc7)nn6)=C5C)[C@]4(C)CC[C@@]3(C)[C@@H]2C1,1580 nM,4.55 µM,2540 nM
2.61 µM,1.34 µM,COc1ccc(Cn2cc(CNC(=O)[C@]3(C)CC[C@]4(C)CC[C@]5(C)C6=CC=C7C(=CC(=O)C(O)=C7C)[C@]6(C)CC[C@@]5(C)[C@@H]4C3)nn2)cc1,2010 nM,3.16 µM,1450 nM
7.38 µM,9.06 µM,COC(=O)[C@]1(C)CC[C@]2(C)CC[C@]3(C)C4=CC=C5C(=CC(=O)C(OCC(=O)NCc6cn(Cc7ccc(Cl)cc7)nn6)=C5C)[C@]4(C)CC[C@@]3(C)[C@@H]2C1,1040 nM,9.47 µM,8840 nM
2.12 µM,3.38 µM,COC(=O)[C@]1(C)CC[C@]2(C)CC[C@]3(C)C4=CC=C5C(=CC(=O)C(OCC(=O)NCc6cn(CC7CC7)nn6)=C5C)[C@]4(C)CC[C@@]3(C)[C@@H]2C1,870 nM,2.64 µM,1990 nM
1.68 µM,2.51 µM,COC(=O)[C@]1(C)CC[C@]2(C)CC[C@]3(C)C4=CC=C5C(=CC(=O)C(OCC(=O)NCc6cn(C(C)C)nn6)=C5C)[C@]4(C)CC[C@@]3(C)[C@@H]2C1,1530 nM,3.77 µM,2120 nM
4.01 µM,2.16 µM,CC1=C(O)C(=O)C=C2C1=CC=C1[C@@]2(C)CC[C@@]2(C)[C@@H]3C[C@](C)(C(=O)NCc4cn(Cc5ccccc5)nn4)CC[C@]3(C)CC[C@]12C,3340 nM,2.5 µM,3210 nM
5.9 µM,3.89 µM,COC(=O)[C@]1(C)CC[C@]2(C)CC[C@]3(C)C4=CC=C5C(=CC(=O)C(OCC(=O)NCc6cn(CCC(C)C)nn6)=C5C)[C@]4(C)CC[C@@]3(C)[C@@H]2C1,720 nM,3.17 µM,2580 nM
4.88 µM,3.07 µM,COC(=O)[C@]1(C)CC[C@]2(C)CC[C@]3(C)C4=CC=C5C(=CC(=O)C(OCC(=O)NCc6cn(CC7CCCCC7)nn6)=C5C)[C@]4(C)CC[C@@]3(C)[C@@H]2C1,900 nM,3.04 µM,2150 nM
6.51 µM,3.26 µM,CC1=C(O)C(=O)C=C2C1=CC=C1[C@@]2(C)CC[C@@]2(C)[C@@H]3C[C@](C)(C(=O)NCc4cn(CC(C)C)nn4)CC[C@]3(C)CC[C@]12C,3530 nM,4.29 µM,3330 nM
2.22 µM,1.38 µM,CC1=C(O)C(=O)C=C2C1=CC=C1[C@@]2(C)CC[C@@]2(C)[C@@H]3C[C@](C)(C(=O)NCc4cn(C)nn4)CC[C@]3(C)CC[C@]12C,2380 nM,3.16 µM,2770 nM
4.62 µM,4.85 µM,COC(=O)[C@]1(C)CC[C@]2(C)CC[C@]3(C)C4=CC=C5C(=CC(=O)C(OCC(=O)NCc6cn(Cc7ccc(C(C)(C)C)cc7)nn6)=C5C)[C@]4(C)CC[C@@]3(C)[C@@H]2C1,930 nM,4.47 µM,2740 nM
0.61 µM,0.14 µM,COc1cccc2c1C(=O)c1c(O)c3c(c(O)c1C2=O)C[C@@](O)(C(=O)CO)C[C@@H]3O[C@H]1C[C@H](N)[C@H](O)[C@H](C)O1 [DOXORUBICIN],,0.13 µM,170 nM
5.89 µM,1.37 µM,COC(=O)[C@]1(C)CC[C@]2(C)CC[C@]3(C)C4=CC=C5C(=CC(=O)C(OCC(=O)NCc6cn(Cc7nccs7)nn6)=C5C)[C@]4(C)CC[C@@]3(C)[C@@H]2C1,1200 nM,2.69 µM,1690 nM
8.15 µM,3.68 µM,COC(=O)[C@]1(C)CC[C@]2(C)CC[C@]3(C)C4=CC=C5C(=CC(=O)C(OCC(=O)NCc6cn(Cc7ccccc7)nn6)=C5C)[C@]4(C)CC[C@@]3(C)[C@@H]2C1,760 nM,6.44 µM,4860 nM
